# Biological target: T1, BCL6 (Homo sapiens, UniProt P41182)
# T1 construct: endogenous in cells; host or cells: T47D breast cancer epithelial cells
# Assay: Immunofluorescence protocol for high content imaging of BCL6 (degradation) in T47D cells, 3 days compound treatment
# Format: cell-based
# Details: for Dmax: T47D, read-out: Mean Dmax (%)** category; for DC50: read-out: Mean DC50 (nM)* category
# Outline: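 Read-out: high-content imaging of anti-BCL6 immunofluorescence (Alexa-488 secondary) with CellMask and Hoechst counterstains, 10×, 4 fields/well. Cells had 3 days of compound exposure at 37° C, 5% CO2, 11-point 3-fold series from a final top of 0.1 or 1 μM.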
Compound,Dmax,DC50
"CNC(=O)COc1cc2cc(Nc3nc(N4CCC(O[C@H]5C[C@H](N6[C@H](C)CN(c7ccc8c(c7)CN(C7CCC(=O)NC7=O)C8=O)C[C@H]6C)C5)CC4)ncc3Cl)ccc2n(C(C)C)c1=O (stereo partly drawn) [Compound 250, 2-({6-[(5-chloro-2-{4-[(1r,3r)-3-[(2R,6R)-4-[2-(2,6-dioxopiperidin-3-yl)-1-oxo-2,3-dihydro-1H-isoindol-5-yl]-2,6-dimethylpiperazin-1-yl]cyclobutoxy]piperidin-1-yl}pyrimidin-4-yl)amino]-2-oxo-1-(propan-2-yl)-1,2-dihydroquinolin-3-yl}oxy)-N-methylacetamide]",50 to 70%,< 10 nM
"CNC(=O)COc1cc2c(F)c(Nc3cc(N4CCC(CN5CCC6(CN(c7ccc8c(c7)CN(C7CCC(=O)NC7=O)C8=O)C6)C(F)(F)C5)CC4)ncc3Cl)ccc2n(C(C)C)c1=O (stereo not shown) [Compound 251, 2-{[6-({5-chloro-2-[4-({2-[2-(2,6-dioxopiperidin-3-yl)-1-oxo-2,3-dihydro-1H-isoindol-5-yl]-5,5-difluoro-2,7-diazaspiro[3.5]nonan-7-yl}methyl)piperidin-1-yl]pyridin-4-yl}amino)-5-fluoro-2-oxo-1-(propan-2-yl)-1,2-dihydroquinolin-3-yl]oxy}-N-methylacetamide]",≥ 70%,< 10 nM
"CNC(=O)COc1cc2c(F)c(Nc3cc(N4CCC(CN5CCC6(CN(c7ccc8c(c7F)CN(C7CCC(=O)NC7=O)C8=O)C6)C(F)(F)C5)CC4)ncc3Cl)ccc2n(C(C)C)c1=O (stereo not shown) [Compound 252, 2-{[6-({5-chloro-2-[4-({2-[2-(2,6-dioxopiperidin-3-yl)-4-fluoro-1-oxo-2,3-dihydro-1H-isoindol-5-yl]-5,5-difluoro-2,7-diazaspiro[3.5]nonan-7-yl}methyl)piperidin-1-yl]pyridin-4-yl}amino)-5-fluoro-2-oxo-1-(propan-2-yl)-1,2-dihydroquinolin-3-yl]oxy}-N-methylacetamide]",50 to 70%,< 10 nM
"CNC(=O)COc1cc2cc(Nc3nc(N4CCC(O[C@H]5C[C@H](N6[C@@H](C)CN(c7ccc8c(c7)C(=O)N(C7CCC(=O)NC7=O)C8=O)C[C@@H]6C)C5)CC4)ncc3Cl)ccc2n(C(C)C)c1=O (stereo partly drawn) [Compound 253, 2-({6-[(5-chloro-2-{4-[(1r,3r)-3-[(2S,6S)-4-[2-(2,6-dioxopiperidin-3-yl)-1,3-dioxo-2,3-dihydro-1H-isoindol-5-yl]-2,6-dimethylpiperazin-1-yl]cyclobutoxy]piperidin-1-yl}pyrimidin-4-yl)amino]-2-oxo-1-(propan-2-yl)-1,2-dihydroquinolin-3-yl}oxy)-N-methylacetamide]",≥ 70%,10 to 50 nM
"CNC(=O)COc1cc2cc(Nc3nc(N4CCC(O[C@H]5C[C@H](N6[C@@H](C)CN(c7ccc8c(c7)CN(C7CCC(=O)NC7=O)C8=O)C[C@@H]6C)C5)CC4)ncc3Cl)ccc2n(C(C)C)c1=O (stereo partly drawn) [Compound 254, 2-({6-[(5-chloro-2-{4-[(1r,3r)-3-[(2S,6S)-4-[2-(2,6-dioxopiperidin-3-yl)-1-oxo-2,3-dihydro-1H-isoindol-5-yl]-2,6-dimethylpiperazin-1-yl]cyclobutoxy]piperidin-1-yl}pyrimidin-4-yl)amino]-2-oxo-1-(propan-2-yl)-1,2-dihydroquinolin-3-yl}oxy)-N-methylacetamide]",≥ 70%,< 10 nM
"CNC(=O)COc1cc2cc(Nc3nc(N4CCC(CN5[C@@H](C)CC6(C[C@@H]5C)CN(c5ccc7c(c5)C(=O)N(C5CCC(=O)NC5=O)C7=O)C6)CC4)ncc3Cl)ccc2n(C(C)C)c1=O (stereo partly drawn) [Compound 255, 2-[(6-{[5-chloro-2-(4-{[(6S,8S)-2-[2-(2,6-dioxopiperidin-3-yl)-1,3-dioxo-2,3-dihydro-1H-isoindol-5-yl]-6,8-dimethyl-2,7-diazaspiro[3.5]nonan-7-yl]methyl}piperidin-1-yl)pyrimidin-4-yl]amino}-2-oxo-1-(propan-2-yl)-1,2-dihydroquinolin-3-yl)oxy]-N-methylacetamide]",50 to 70%,< 10 nM
"CNC(=O)COc1cc2cc(Nc3nc(N4CCC(O[C@H]5C[C@H](N6CCC(c7ccc8c(c7)C(=O)N(C7CCC(=O)NC7=O)C8=O)C6)C5)CC4)ncc3Cl)ccc2n(C(C)C)c1=O (stereo partly shown) [Compound 256, 2-({6-[(5-chloro-2-{4-[(1r,3r)-3-{3-[2-(2,6-dioxopiperidin-3-yl)-1,3-dioxo-2,3-dihydro-1H-isoindol-5-yl]pyrrolidin-1-yl}cyclobutoxy]piperidin-1-yl}pyrimidin-4-yl)amino]-2-oxo-1-(propan-2-yl)-1,2-dihydroquinolin-3-yl}oxy)-N-methylacetamide]",50 to 70%,10 to 50 nM
"CNC(=O)COc1cc2cc(Nc3cc(N4CCC(F)(CN5CCC6(CC5)CN(c5ccc7c(c5F)CN(C5CCC(=O)NC5=O)C7=O)C6(C)C)CC4)ncc3Cl)ccc2n(C(C)C)c1=O (stereo not shown) [Compound 257, 2-{[6-({5-chloro-2-[4-({2-[2-(2,6-dioxopiperidin-3-yl)-4-fluoro-1-oxo-2,3-dihydro-1H-isoindol-5-yl]-1,1-dimethyl-2,7-diazaspiro[3.5]nonan-7-yl}methyl)-4-fluoropiperidin-1-yl]pyridin-4-yl}amino)-2-oxo-1-(propan-2-yl)-1,2-dihydroquinolin-3-yl]oxy}-N-methylacetamide]",50 to 70%,< 10 nM
"CNC(=O)COc1cc2cc(Nc3cc(N4CCC(O[C@H]5C[C@H](N6CCC(c7ccc8c(c7F)CN(C7CCC(=O)NC7=O)C8=O)CC6)C5)CC4)ncc3Cl)ccc2n(C(C)C)c1=O (stereo partly shown) [Compound 258, 2-({6-[(5-chloro-2-{4-[(1r,3r)-3-{4-[2-(2,6-dioxopiperidin-3-yl)-4-fluoro-1-oxo-2,3-dihydro-1H-isoindol-5-yl]piperidin-1-yl}cyclobutoxy]piperidin-1-yl}pyridin-4-yl)amino]-2-oxo-1-(propan-2-yl)-1,2-dihydroquinolin-3-yl}oxy)-N-methylacetamide]",50 to 70%,< 10 nM
"CNC(=O)COc1cc2c(F)c(Nc3cc(N4CCC(F)(CN5CCC6(CC5)CN(c5ccc7c(c5F)CN(C5CCC(=O)NC5=O)C7=O)C6)CC4)ncc3Cl)ccc2n(C(C)C)c1=O (stereo not shown) [Compound 259, 2-{[6-({5-chloro-2-[4-({2-[2-(2,6-dioxopiperidin-3-yl)-4-fluoro-1-oxo-2,3-dihydro-1H-isoindol-5-yl]-2,7-diazaspiro[3.5]nonan-7-yl}methyl)-4-fluoropiperidin-1-yl]pyridin-4-yl}amino)-5-fluoro-2-oxo-1-(propan-2-yl)-1,2-dihydroquinolin-3-yl]oxy}-N-methylacetamide]",50 to 70%,< 10 nM
"CNC(=O)COc1cc2cc(Nc3nc(N4CCC(OC5CN(C6CCN(c7ccc8c(c7F)CN(C7CCC(=O)NC7=O)C8=O)CC6)C5)CC4)ncc3Cl)ccc2n(C(C)C)c1=O (stereo not shown) [Compound 260, 2-({6-[(5-chloro-2-{4-[(1-{1-[2-(2,6-dioxopiperidin-3-yl)-4-fluoro-1-oxo-2,3-dihydro-1H-isoindol-5-yl]piperidin-4-yl}azetidin-3-yl)oxy]piperidin-1-yl}pyrimidin-4-yl)amino]-2-oxo-1-(propan-2-yl)-1,2-dihydroquinolin-3-yl}oxy)-N-methylacetamide]",50 to 70%,< 10 nM

# Reference: US11986532B2 (Arvinas Operations, Inc., priority 2021, dated 2024)
